{
  "source": "patent US20100222304A1",
  "about": "“Methods of Treating Neuropathic Pain by Modulation of Glycogenolysis or Glycolysis” (priority 2006, published 2010)",
  "key": {"[1]": {"conditions": "oral capsules 100, 200, 400 or 800 mg, 14 days; cited from earlier work"}, "[2]": {"tested_on": "patients", "conditions": "first 6 h after dosing on day 14, versus day before first dose; cited from earlier work"}, "[3]": {"tested_on": "human hepatocytes", "conditions": "human primary hepatocytes; read-out: EC50, inhibition of glucose production; cited from earlier work"}, "[4]": {"tested_on": "Zucker diabetic fatty (ZDF) rats", "conditions": "cited from earlier work; for glucose tolerance: CS-917 300 mg/kg and/or glyburide 100 mg/kg orally, 90 min before 2 g/kg glucose, 3 h following; for insulin secretion: CS-917 300 mg/kg, glyburide 100 mg/kg orally"}, "[5]": {"conditions": "one oral suspension dose 2.5 to 1000 mg after overnight fast; cited from earlier work"}, "[6]": {"tested_on": "Female ZDF rats", "conditions": "100 mg/kg/day, 14 days; cited from earlier work"}, "[7]": {"tested_on": "gluconeogenesis", "conditions": "rat hepatocytes, isolated rat kidneys, whole animal studies; cited from earlier work"}, "[8]": {"tested_on": "goto-kakizaki (GK) rats", "conditions": "cited from earlier work"}, "[9]": {"tested_on": "ZDF rats", "conditions": "cited from earlier work"}, "[10]": {"conditions": "cited from earlier work"}, "[11]": {"tested_on": "overnight fasted rats", "conditions": "2.5 to 40 mg/kg 1 h before liquid meal 20 kcal/kg; effect at doses over 10 mg/kg; cited from earlier work"}, "[12]": {"tested_on": "cynomolgus monkeys", "conditions": "cited from earlier work"}, "[13]": {"tested_on": "Tet/GSK-3-beta mice", "conditions": "cited from earlier work; for tau phosphorylation in the hippocampus: oral, 3 weeks, NP-01139 50 to 100 mg/kg/day, NP-12 100 to 200 mg/kg/day; for clinical signs: prolonged oral treatment"}, "[14]": {"tested_on": "healthy conscious rats", "conditions": "glucagon 10 microg/kg iv; cited from earlier work"}, "[15]": {"tested_on": "db/db mice", "conditions": "cited from earlier work"}, "[16]": {"conditions": "rats; cited from earlier work"}, "[17]": {"tested_on": "rat hepatocytes", "conditions": "read-out: EC50, reduction of glucagon-induced glycogenolysis; cited from earlier work"}, "[18]": {"tested_on": "Male Sprague-Dawley rats", "assay": "Mechanical allodynia induced by spinal nerve ligation (SNL) in rats", "type": "in vivo, rat", "conditions": "30 mg/kg PO, post-SNL day 19, p<0.01 vs. vehicle", "description": "Male Sprague-Dawley rats (Hsd:Sprague-Dawley®SD®, Harlan, Indianapolis, Ind., U.S.A.) weighing 223±2 g on Day 14 were housed three per cage. Animals had free access to food and water and were maintained on a 12:12 h light/dark schedule for the entire duration of the study. The animal colony was maintained at 21° C. and 60% humidity. All experiments were conducted in accordance with the International Association for the Study of Pain guidelines and were approved by the University of Minnesota Animal Care and Use Committee.\nThe Spinal Nerve Ligation (SNL) model was used to induce chronic neuropathic pain. […]\nBaseline, post-injury and post-treatment values for non-noxious mechanical sensitivity were evaluated using 8 Semmes-Weinstein filaments (Stoelting, Wood Dale, Ill., USA) with varying stiffness (0.4, 0.7, 1.2, 2.0, 3.6, 5.5, 8.5, and 15 g) according to the up-down method. […] The mean and standard error of the mean (SEM) were determined for each paw in each treatment group. […]\nStatistical analyses were conducted using Prism™ 4.01 (GraphPad, San Diego, Calif., USA). Mechanical hypersensitivity of the injured paw was determined by comparing pre-SNL to post-SNL values at Day 14. Data were analyzed using the Wilcoxon test. […] Drug effect was analyzed by comparing post-vehicle and post-drug values using the Friedman test followed by a Dunn's post hoc test. […]"}, "[19]": {"tested_on": "db/db mice", "conditions": "60 mg/kg po qd, 9 days; cited from earlier work"}, "[20]": {"tested_on": "ob/ob mice", "conditions": "30 mg/kg po, cited from earlier work"}, "[21]": {"tested_on": "human hepatocytes", "conditions": "read-out: EC50, reduction of glucagon-induced glycogenolysis; cited from earlier work"}, "[22]": {"conditions": "single and multiple dose escalation; cited from earlier work"}, "[23]": {"conditions": "chronic 21-day study, 10-week old ZDF rats"}, "[24]": {"conditions": "50, 100, 200 or 400 mg qd, 14 days"}},
  "note": "Like-named read-outs stand apart in the source and are kept apart here.",
  "data": [
    {"smiles": "CCOC(=O)[C@H](C)NP(=O)(N[C@@H](C)C(=O)OCC)c1ccc(-c2nc(N)sc2CC(C)C)o1", "note": "[CS-917]", "values": [
      {"measurement": "tolerability", "setting": "[1]", "result": "well tolerated with no serious adverse events"},
      {"measurement": "blood glucose levels", "setting": "[2]", "result": "lower blood glucose levels"},
      {"measurement": "EC50", "setting": "[3]", "result": 300, "unit": "nM"},
      {"measurement": "glucose tolerance", "setting": "[4]", "result": "improved glucose tolerance"},
      {"measurement": "insulin secretion", "setting": "[4]", "result": "No stimulation of insulin secretion"},
      {"measurement": "tolerability", "setting": "[5]", "result": "well tolerated with nausea seen at 400 mg and vomiting seen at 800 and 1000 mg"},
      {"measurement": "hyperglycemia (blood glucose)", "setting": "[6]", "result": "166 ± 24", "unit": "mg/dL"},
      {"measurement": "insulin levels, blood lactate, liver glycogen and liver triglycerides", "setting": "[6]", "result": "largely unaffected"},
      {"measurement": "plasma triglycerides", "setting": "[6]", "result": "tended to be lowered"},
      {"measurement": "polydipsia", "setting": "[6]", "result": "15 ± 6.2", "unit": "mL/day"},
      {"measurement": "gluconeogenesis", "setting": "[7]", "result": "inhibit gluconeogenesis"},
      {"measurement": "plasma glucagons", "setting": "[8]; 40 mg/kg", "result": "increased"},
      {"measurement": "plasma glucose levels", "setting": "[8]; 5 to 40 mg/kg, 3 h after administration", "result": "dose-dependently decreased"},
      {"measurement": "hepatic fructose 1,6-bisphosphate and fructose 6-phosphate", "setting": "[8]; 20 and 40 mg/kg, 4 h after administration", "result": "increased"},
      {"measurement": "glucose lowering", "setting": "[9]; [23]", "result": "effectively lowered glucose"},
      {"measurement": "minimum efficacious dose, glucose lowering", "setting": "[9]; [23]", "result": 30, "unit": "mg/kg"},
      {"measurement": "oral efficacy", "setting": "[9]; freely feeding and 6-h fasting ZDF rats, early and advanced disease states", "result": "good oral efficacy"},
      {"measurement": "lactic acid AUC compared with placebo", "setting": "[10]; 400 mg dose", "result": "increased"},
      {"measurement": "absorption, metabolism, clearance", "setting": "[10]; [24]", "result": "rapidly absorbed, extensively metabolized, rapidly cleared"},
      {"measurement": "tolerability", "setting": "[10]; [24]", "result": "well tolerated with no serious adverse events"},
      {"measurement": "lactic acid profiles", "setting": "[10]; other dose groups (50, 100, 200 mg)", "result": "indifferent from placebo"},
      {"measurement": "AUC values of plasma glucose levels", "setting": "[11]", "result": "significantly dose dependently decreased"},
      {"measurement": "plasma glucagons levels", "setting": "[12]; 60 mg/kg", "result": "increased"},
      {"measurement": "insulin levels", "setting": "[12]; 20 to 60 mg/kg, 3 h after administration", "result": "dose-dependently decreased"}
    ]},
    {"smiles": "CC1CC(=O)C(CC2C=CC=CC2)C1=O", "note": "(centres unmarked) [NP-12]", "values": [
      {"measurement": "tau phosphorylation in the hippocampus", "setting": "[13]", "result": "dose-dependent significant decrease"},
      {"measurement": "clinical signs", "setting": "[13]", "result": "not showing any apparent clinical signs"}
    ]},
    {"smiles": "Cn1sc(=O)n(Cc2ccccc2)c1=O", "note": "[NP-01139]", "values": [
      {"measurement": "tau phosphorylation in the hippocampus", "setting": "[13]", "result": "dose-dependent significant decrease"},
      {"measurement": "clinical signs", "setting": "[13]", "result": "not showing any apparent clinical signs"}
    ]},
    {"smiles": "O=C(N[C@@H](Cc1ccc(F)cc1)C(=O)N1CCC(O)CC1)c1cc2cc(Cl)ncc2[nH]1", "note": "[PSN-357]", "values": [
      {"measurement": "minimum effective dose, inhibition of glucagon-stimulated elevation of blood glucose", "setting": "[14]", "result": 3, "unit": "mg/kg"},
      {"measurement": "heart and skeletal muscle glycogen", "setting": "[15]; after 5 h", "result": "remained unaffected"},
      {"measurement": "liver glycogen", "setting": "[15]; after 5 h", "result": "increase in liver glycogen"},
      {"measurement": "reduction of blood glucose", "setting": "[15]; maintained after 5 h", "result": 35, "unit": "%"},
      {"measurement": "t1/2", "setting": "[16]", "result": 4, "unit": "h"},
      {"measurement": "EC50", "setting": "[17]", "result": 1900, "unit": "nM"},
      {"measurement": "mechanical allodynia (von Frey, up-down method)", "setting": "[18]", "result": "reduced mechanical allodynia"},
      {"measurement": "hyperglycemia", "setting": "[19]", "result": "prevented hyperglycemia"},
      {"measurement": "increase in liver glycogen", "setting": "[19]", "result": 57, "unit": "%"},
      {"measurement": "muscle glycogen, plasma insulin or alanine aminotransferase", "setting": "[19]", "result": "no changes"},
      {"measurement": "blood glucose levels", "setting": "[20]; 90 to 210 minutes post administration", "result": "reduced blood glucose levels"},
      {"measurement": "increase in liver glycogen", "setting": "[20]; after 5 h", "result": 66, "unit": "%"},
      {"measurement": "EC50", "setting": "[21]", "result": 1100, "unit": "nM"},
      {"measurement": "safety and tolerability", "setting": "[22]", "result": "safe and well tolerated"}
    ]},
    {"smiles": "COc1ccc(Cl)cc1C(=O)NCCc1ccc(S(=O)(=O)NC(=O)NC2CCCCC2)cc1", "note": "[glyburide]", "values": [
      {"measurement": "glucose tolerance", "setting": "[4]", "result": "improved glucose tolerance"},
      {"measurement": "insulin secretion", "setting": "[4]", "result": "positive insulin secretory response"}
    ]}
  ]
}
